Test system: human neonatal and adult blood
Assay: Human whole blood assay, cytokine induction (3M-052, PCV13)
Type: cell-based
Details: 6 hours, concentration-dependent, each agent alone
Excerpt: Human blood sample processing and in vitro stimulation. Peripheral blood was collected from healthy adult volunteers, while human newborn cord blood was collected immediately after Cesarean section delivery of the placenta. Births to known HIV-positive mothers were excluded. Human experimentation guidelines of the U.S. Department of Health and Human Services, The Brigham & Women's Hospital, Beth Israel Deaconess Medical Center Boston, and Boston Children's Hospital were observed, following protocols approved by the local institutional review boards. Human blood was anti-coagulated with 20 units/ml pyrogen-free sodium heparin (American Pharmaceutical Partners, Inc.; Schaumberg, Ill.). All blood products were kept at room temperature and processed within 4 hours from collection. […] Additionally, whole blood assay supernatants were analyzed by multiplex cytokine assays (Millipore; Billerica, Mass., USA). […]
TLR agonists and multi-analyte assays. […] Cytokine and chemokine expression profiles in cell culture supernatants and peripheral blood plasma were measured using customized Milliplex human and non-human primate cytokine/chemokine magnetic bead panels (Millipore), respectively. Assays were analyzed on the Luminex® 100/200™ System employing xPOTENT® software (Luminex; Austin, Tex.) and Millipore Milliplex Analyst (version 3.5.5.0).

CCCCCCCCCCCCCCCCCC(=O)NCCCCOn1c(CCCC)nc2c(N)nc3ccccc3c21 [3M-052, N-[4-[(4-amino-2-butyl-1H-imidazo[4,5-c]quinolin-1-yl)oxy]butyl]octadecanamide]
production of TNF: significantly inducing production of TNF over baseline
